Values quoted from earlier work as cited in patent publication US12023346B1, “Compositions and methods for treating epilepsy” (POVIVA CORP, priority 2023, dated 2024).
Like-named read-outs stand apart in the source and are kept apart here.

C=C(C)[C@@H]1CCC(C)=C[C@H]1c1c(O)cc(CCCCC)cc1O [Cannabidiol, 2-[(1R,6R)-6-Isopropenyl-3-methylcyclohex-2-en-1-yl]-5-pentylbenzene-1,3-diol]
Plasma concentration on Day 22 at target CBD dose, 5 hours, Mean (SD) (5 mg/kg/day (N = 10)): 72.1 (49.0) ng/mL
Plasma concentration on Day 22 at target CBD dose, […], Mean (SD) (5 mg/kg/day (N = 10)): 130 (170) ng/mL
Plasma concentration on Day 1 at starting CBD dose, 5 hours, Mean (SD) (5 mg/kg/day group (N = 10)): 10.0 (5.74) ng/ml
Plasma concentration on Day 1 at starting CBD dose, Pre-dose, Mean (SD) (5 mg/kg/day group (N = 10)): 0 ng/mL
Plasma concentration on Day 1 at starting CBD dose, […], Mean (SD) (5 mg/kg/day group (N = 10)): 37.6 (53.7) ng/ml
Plasma concentration on Day 22 at target CBD dose, 5 hours, Mean (SD) (10 mg/kg/day (N = 8)): 288 (345) ng/mL
Plasma concentration on Day 22 at target CBD dose, […], Mean (SD) (10 mg/kg/day (N = 8)): 242 (159) ng/mL
Plasma concentration on Day 1 at starting CBD dose, 5 hours, Mean (SD) (10 mg/kg/day group (N = 8)): 11.3 (11.7) ng/ml
Plasma concentration on Day 1 at starting CBD dose, Pre-dose, Mean (SD) (10 mg/kg/day group (N = 8)): 0 ng/mL
Plasma concentration on Day 1 at starting CBD dose, […], Mean (SD) (10 mg/kg/day group (N = 8)): 34.4 (32.1) ng/ml
Plasma concentration on Day 22 at target CBD dose, 5 hours, Mean (SD) (20 mg/kg/day (N = 9)): 308 (321) ng/mL
Plasma concentration on Day 22 at target CBD dose, […], Mean (SD) (20 mg/kg/day (N = 9)): 380 (370) ng/mL
Plasma concentration on Day 1 at starting CBD dose, 5 hours, Mean (SD) (20 mg/kg/day group (N = 9)): 25.3 (42.4) ng/ml
Plasma concentration on Day 1 at starting CBD dose, Pre-dose, Mean (SD) (20 mg/kg/day group (N = 9)): 0 ng/mL
Plasma concentration on Day 1 at starting CBD dose, […], Mean (SD) (20 mg/kg/day group (N = 9)): 29.3 (28.5) ng/ml
